Read-outs that look alike come from different tables or passages of the source.
Columns and labels:
[1] = target: T1, human cannabinoid CB2 receptor (Homo sapiens, UniProt P34972); test: In vitro affinity for cannabinoid-CB2 receptors ([3H]CP-55,940 radioligand binding, CHO cell membranes)
T1 construct: expressed in transfected cells; host or cells: Chinese hamster ovary (CHO) cells, membrane preparation
Experimental: (§1) The affinity of the compounds of the invention for cannabinoid CB2 receptors can be determined using membrane preparations of Chinese hamster ovary (CHO) cells in which the human cannabinoid CB2 receptor is stably transfected in conjunction with [^3H]CP-55,940 as radioligand. After incubation of a freshly prepared cell membrane preparation with the [^3H]-ligand, with or without addition of compounds of the invention, separation of bound and free ligand is performed by filtration over glassfiber filters. Radioactivity on the filter is measured by liquid scintillation counting.
The affinity of the compounds of the invention for cannabinoid CB2 receptors was determined as described above. From the binding affinity measured for a given compound of formula (I), one can estimate a theoretical lowest effective dose. At a concentration of the compound equal to twice the measured Ki-value, […] of the cannabinoid CB2 receptors likely will be occupied by the compound. Converting that concentration to mg of compound per kg of patient yields a theoretical lowest effective dose, assuming ideal bioavailability. Pharmacokinetic, pharmacodynamic, and other considerations may alter the dose actually administered to a higher or lower value. The dosage expediently administered is 0.001-1000 mg/kg, such as 0.1-100 mg/kg of patient's bodyweight.

[2] = target: T2, human cannabinoid CB1 receptor (Homo sapiens, UniProt P21554); test: In vitro affinity for cannabinoid-CB1 receptors ([3H]CP-55,940 radioligand binding, CHO cell membranes)
T2 construct: expressed in transfected cells; host or cells: Chinese hamster ovary (CHO) cells, membrane preparation
Experimental: as §1, with “CB1” for “CB2”

[3] = membranes of CHO cells stably transfected with human CB2 receptor, [3H]CP-55,940 radioligand, read-out: Human cannabinoid-CB2 receptor In vitro affinity - pKi value (converted)

T2 sequence (P21554 whole entry): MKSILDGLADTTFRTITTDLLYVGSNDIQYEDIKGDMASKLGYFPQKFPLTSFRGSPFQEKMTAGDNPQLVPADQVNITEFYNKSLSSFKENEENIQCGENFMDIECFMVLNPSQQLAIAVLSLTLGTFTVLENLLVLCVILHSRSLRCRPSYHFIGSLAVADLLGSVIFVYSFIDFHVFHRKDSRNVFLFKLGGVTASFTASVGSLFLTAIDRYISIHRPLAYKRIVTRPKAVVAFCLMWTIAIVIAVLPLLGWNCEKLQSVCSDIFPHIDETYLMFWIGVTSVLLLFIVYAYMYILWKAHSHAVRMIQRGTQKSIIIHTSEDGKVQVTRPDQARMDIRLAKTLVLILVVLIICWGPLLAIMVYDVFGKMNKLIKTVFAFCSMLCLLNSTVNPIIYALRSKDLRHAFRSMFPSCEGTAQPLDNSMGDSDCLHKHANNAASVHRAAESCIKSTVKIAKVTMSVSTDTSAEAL
T1 sequence (P34972 whole entry): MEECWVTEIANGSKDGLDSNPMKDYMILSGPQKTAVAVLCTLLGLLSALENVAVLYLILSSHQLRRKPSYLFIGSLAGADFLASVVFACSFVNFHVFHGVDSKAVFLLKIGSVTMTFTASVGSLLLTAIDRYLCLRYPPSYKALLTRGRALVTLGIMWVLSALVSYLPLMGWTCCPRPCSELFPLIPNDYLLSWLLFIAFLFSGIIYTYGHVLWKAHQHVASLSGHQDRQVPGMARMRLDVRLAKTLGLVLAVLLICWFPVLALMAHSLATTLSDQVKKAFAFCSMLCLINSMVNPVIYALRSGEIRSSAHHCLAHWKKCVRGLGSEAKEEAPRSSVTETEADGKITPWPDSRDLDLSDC

Compound	melting point	other results
COC(=O)[C@H](Cc1ccccc1)NC(=O)c1cn(CCN2CCOCC2)cn1 [BMS-II, reference compound]	–	Ki [1]: > 1000 nM
Cc1c(C(=O)N[C@H]2C(C)(C)[C@H]3CC[C@]2(C)C3)ncn1CCCNS(C)(=O)=O	149 to 156 °C	–
Cc1c(C(=O)NC23CC4CC(CC(C4)C2)C3)ncn1-c1ccccc1 [Compound 2]	214 to 219 °C	–
Cc1nc(C(=O)NC23CC4CC(CC(C4)C2)C3)cn1-c1ccccc1 [Compound 8, N-adamantyl-2-methyl-1-phenyl-1H-imidazole-4-carboxamide]	207 to 210 °C	–
O=C(NC12CC3CC(CC(C3)C1)C2)c1nc(Cl)n(-c2ccccc2)c1Cl	172 to 173 °C	–
Cc1nc(C(=O)Nc2ccc(C#N)c3ccccc23)c(C)n1-c1ccccc1	241.5 °C	–
CCCCCn1cnc(C(=O)N[C@@H](Cc2ccccc2)C(=O)OC)c1 [BMS-III, reference compound]	–	Ki [1]: 63.1 nM
CCc1c(C(=O)NC23CC4CC(CC(C4)C2)C3)nc(C)n1-c1ccccc1 [Compound 15]	–	Ki [2]: 631 nM; Ki [1]: < 1 nM
CCCCc1c(C(=O)NC23CC4CC(CC(C4)C2)C3)nc(C)n1-c1ccccc1	171 to 172 °C	–
O=C(NC12CC3CC(CC(C3)C1)C2)c1cn(-c2ccccc2)cn1 [Compound 6]	198 to 200 °C	–
Cc1nc(C(=O)NC23CC4CC(CC(C4)C2)C3)c(C)n1-c1ccc2c(c1)OCCO2.Cl	221 to 223 °C	–
Cc1nc(C(=O)NC23CC4CC(CC(C4)C2)C3)c(C)n1-c1ccccc1 [Compound 11]	–	Ki [2]: > 1000 nM; Ki [1]: 1 nM
Cc1nc(C(=O)NC23CC4CC(CC(C4)C2)C3)c(Br)n1-c1ccccc1 [Compound 33A]	–	Ki ([2]; membranes of CHO cells stably transfected with human CB1 receptor, [3H]CP-55,940 radioligand, read-out: Human cannabinoid-CB1 receptor In vitro affinity - pKi (converted)): 794 nM; Ki [1]: 6.31 nM
COc1cccc(-n2c(C)nc(C(=O)NCC3CCC4C(C)(C)C45CC35)c2C)c1 (stereo not drawn) [Compound 12]	153 to 155 °C	–
N-[(1R,2S,5R)-rel-6,6-dimethylbicyclo[3.1.1]heptan-2-methyl]-5-methyl-1-phenyl-1H-imidazole-4-carboxamide [Compound 1]	–	Human cannabinoid-CB1 receptor In vitro affinity - pKi ([2]; membranes of CHO cells stably transfected with human CB1 receptor, [3H]CP-55,940 radioligand): <6.0; Human cannabinoid-CB2 receptor In vitro affinity - pKi value ([1]; membranes of CHO cells stably transfected with human CB2 receptor, [3H]CP-55,940 radioligand): 7.3
Cc1nc(C(=O)NC23CC4CC(CC2C4)C3)c(C)n1-c1ccccc1	147 to 150 °C	–
O=C(NC12CC3CC(CC(C3)C1)C2)c1nc(Br)n(-c2ccccc2)c1Br	228 to 231 °C	–
Cc1nc(C(=O)N[C@@H]2C(C)(C)C3CC[C@@]2(C)C3)c(C)n1-c1ccccc1	130 to 132 °C	–
Cc1c(C(=O)N[C@H]2C[C@H]3CC[C@]2(C)C3(C)C)ncn1-c1ccccc1 [Compound 4]	209 to 212 °C	–
O=C(NC12CC3CC(CC(C3)C1)C2)c1ncn(-c2ccccc2)c1Br [Compound 27, N-(adamant-1-yl)-5-bromo-1-phenyl-1H-imidazole-4-carboxamide]	229 to 232 °C	–
Cc1nc(C(=O)NC23CC4CC(CC(O)(C4)C2)C3)c(C)n1-c1ccccc1 [Compound 48, N-(3 hydroxyadamant-1-yl)-2,5-dimethyl-1-phenyl-1H-imidazole-4-carboxamide]	215 to 220 °C	–

Compound	melting point	other results
Cc1nc(C(=O)Nc2ccnc3cc(C(F)(F)F)ccc23)c(C)n1-c1ccccc1	198.5 °C	–
Cc1c(C(=O)NCC2CCC3C(C)(C)C34CC24)ncn1CCCNS(C)(=O)=O (stereo not drawn) [Compound 22]	84 to 108 °C	–
Cc1nc(C(=O)NC23CC4CC(CC(C4)C2)C3)c(C)n1C1CCCCC1 [Compound 14]	–	Ki [2]: > 1000 nM; Ki [1]: 6.31 nM
Cc1nc(C(=O)Nc2cccc(Cl)c2Cl)c(C)n1-c1ccccc1 [Compound 65, N-(2,3-dichlorophenyl)-2,5-dimethyl-1-phenyl-1H-imidazole-4-carboxamide]	127 to 129 °C	–
Cc1nc(C(=O)NCc2ccccc2C(F)(F)F)c(C)n1-c1ccccc1 [Compound 44]	76 to 79 °C	Ki [1, 3]: 1.58 nM
Cc1c(C(=O)NC23CC4CC(CC(C4)C2)C3)nc(C(F)(F)F)n1-c1ccccc1 [Compound 64]	170 to 172 °C	–
Cc1nc(C(=O)Nc2cccc3ccccc23)c(C)n1-c1ccccc1.Cl	177 to 179 °C	–
Cc1c(C(=O)NC23CC4CC(CC(C4)C2)C3)ncn1Cc1ccccc1	182 to 184 °C	–
Cc1nc(C(=O)NC2CCCCCCC2)c(C)n1-c1ccccc1 [Compound 72]	–	Ki [1]: 5.01 nM
CCc1nc(C(=O)NC23CC4CC(CC(C4)C2)C3)cn1-c1ccccc1 [Compound 20]	–	Ki [2]: 251 nM; Ki [1]: 10 nM
Cc1nc(C(=O)NN2CCCCC2)c(C)n1-c1ccccc1	117 to 118 °C	–
CCCCCCC(=O)c1nc(C)n(-c2ccccc2)c1C [Compound 26]	–	Ki [1, 3]: 158 nM
CCc1nc(C(=O)Nc2cccc3ccccc23)c(CC)n1-c1ccccc1	123 to 125 °C	–
Cc1nc(C(=O)NCC2CCC3C(C)(C)C34CC24)cn1-c1ccccc1 (stereo not drawn) [Compound 9]	124 to 127 °C	–
O=C(NC1C2CC3CC(C2)CC1C3)c1cn(-c2ccccc2)cn1 (stereo not drawn) [Compound 7]	232 to 234 °C	–
Cc1c(C(=O)N[C@H]2C(C)(C)[C@H]3CC[C@]2(C)C3)ncn1-c1ccccc1	149 to 152 °C	–
Cc1c(C(=O)Nc2cccc3ccccc23)ncn1-c1ccccc1	167 to 169 °C	–
COC(=O)[C@H](Cc1ccccc1)NC(=O)c1cn(CCOc2ccccc2)cn1 [BMS-I, reference compound]	–	Ki [1]: 398 nM
Cc1nc(C(=O)NC23CC4CC(CC(C4)C2)C3)c(Cl)n1-c1ccccc1 [Compound 33]	–	Ki [1]: 7.94 nM
Cc1nc(C(=O)NC2C3CC4CC(C3)CC2C4)c(C)n1-c1ccccc1 (stereo not drawn) [Compound 49]	245 to 247 °C	Ki [2]: > 1000 nM; Ki [1]: 2.51 nM
Cc1nc(C(=O)Nc2cccc3ncccc23)c(C)n1-c1ccccc1 [Compound 46]	139 to 141 °C	–

From US8937184B2, “1H-imidazole derivatives as cannabinoid CB2 receptor modulators” (Abbvie B.V., priority 2005, dated 2015)
